Converted amounts (≈) assume the structure as drawn.
How the values were obtained:
[1] = target: T1, Diacylglycerol O-acyltransferase 1 (Mus musculus, UniProt Q9Z2A7); experiment: Inhibition of mouse DGAT1 expressed in Sf9 insect cells using 1,2-dioleoyl-sn-glycerol and [14C]-palmitoyl-CoA substrate by scintillation counting analysis
T1 sequence (Q9Z2A7 whole entry): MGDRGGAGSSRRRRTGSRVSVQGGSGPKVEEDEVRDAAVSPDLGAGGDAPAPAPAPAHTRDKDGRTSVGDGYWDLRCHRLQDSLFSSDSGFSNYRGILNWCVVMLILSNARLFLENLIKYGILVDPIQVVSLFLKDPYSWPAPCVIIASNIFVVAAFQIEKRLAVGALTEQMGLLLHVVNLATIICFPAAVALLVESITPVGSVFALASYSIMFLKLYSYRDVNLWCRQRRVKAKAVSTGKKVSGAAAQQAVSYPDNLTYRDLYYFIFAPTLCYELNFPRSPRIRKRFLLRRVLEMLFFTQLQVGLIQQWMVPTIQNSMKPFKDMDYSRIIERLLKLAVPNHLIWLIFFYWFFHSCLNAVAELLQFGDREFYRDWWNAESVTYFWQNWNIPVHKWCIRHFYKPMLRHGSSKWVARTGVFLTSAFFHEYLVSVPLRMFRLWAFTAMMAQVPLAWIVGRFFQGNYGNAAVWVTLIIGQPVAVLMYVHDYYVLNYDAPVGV

[2] = target: T2, Diacylglycerol O-acyltransferase 1 (Homo sapiens, UniProt O75907); experiment: Inhibition of human DGAT1 expressed in Sf9 insect cells using 1,2-dioleoyl-sn-glycerol and [14C]-palmitoyl-CoA substrate by scintillation counting analysis
T2 sequence (O75907 whole entry): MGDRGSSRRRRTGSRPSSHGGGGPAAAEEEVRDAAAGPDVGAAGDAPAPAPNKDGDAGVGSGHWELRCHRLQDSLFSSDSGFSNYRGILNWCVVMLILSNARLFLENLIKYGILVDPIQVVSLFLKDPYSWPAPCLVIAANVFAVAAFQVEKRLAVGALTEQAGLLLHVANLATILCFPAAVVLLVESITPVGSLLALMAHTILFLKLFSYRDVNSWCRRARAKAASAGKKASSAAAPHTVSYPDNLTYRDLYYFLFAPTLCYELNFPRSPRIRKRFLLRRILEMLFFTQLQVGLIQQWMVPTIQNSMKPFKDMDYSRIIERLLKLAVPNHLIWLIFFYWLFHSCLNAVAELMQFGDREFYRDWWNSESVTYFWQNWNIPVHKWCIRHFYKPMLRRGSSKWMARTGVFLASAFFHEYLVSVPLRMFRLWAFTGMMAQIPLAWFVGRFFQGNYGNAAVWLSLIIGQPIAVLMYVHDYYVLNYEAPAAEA

[3] = system: Mus musculus; experiment: Reduction in triglycerides level in mouse at 3 mg/kg, po after 2 hrs by postprandial triglyceride assay; format: functional
[4] = system: Mus musculus; experiment: Reduction in triglycerides level in mouse at 10 mg/kg, po after 2 hrs by postprandial triglyceride assay; format: functional
[5] = AUC in mouse at 10 mg/kg; format: ADME, organism-based; design: dose 10 mg/kg; details: plasma
[6] = target: T3, Sterol O-acyltransferase 2 (Homo sapiens, UniProt O75908); experiment: Inhibition of human ACAT2 expressed in Sf9 insect cells using [14C]-oleoyl-CoA by scintillation counting analysis
T3 sequence (O75908 whole entry): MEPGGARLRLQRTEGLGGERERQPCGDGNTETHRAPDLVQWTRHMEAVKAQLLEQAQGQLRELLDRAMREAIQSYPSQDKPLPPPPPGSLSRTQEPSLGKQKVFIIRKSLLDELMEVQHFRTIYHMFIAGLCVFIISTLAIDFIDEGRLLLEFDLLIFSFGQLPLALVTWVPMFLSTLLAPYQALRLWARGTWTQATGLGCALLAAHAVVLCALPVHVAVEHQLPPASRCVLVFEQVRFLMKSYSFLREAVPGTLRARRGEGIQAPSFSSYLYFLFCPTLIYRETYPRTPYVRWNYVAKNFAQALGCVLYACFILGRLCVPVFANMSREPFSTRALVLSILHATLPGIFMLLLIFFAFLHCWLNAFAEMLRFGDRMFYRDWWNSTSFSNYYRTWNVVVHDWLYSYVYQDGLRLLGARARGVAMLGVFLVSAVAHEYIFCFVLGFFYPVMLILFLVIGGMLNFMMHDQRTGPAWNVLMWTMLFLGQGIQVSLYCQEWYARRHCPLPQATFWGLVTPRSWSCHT

[7] = organism: Homo sapiens; experiment: Selectivity for human DGAT1 over human ACAT
[8] = Permeability in human Caco2 cells; format: ADME, cell-based; details: Caco-2, read-out: permeability
[9] = target: T4, CYP1A1 (Homo sapiens, UniProt P04798); experiment: Induction of CYP1A1 (unknown origin) at 30 uM relative to control; format: ADME; details: read-out: FC
T4 sequence (P04798 whole entry): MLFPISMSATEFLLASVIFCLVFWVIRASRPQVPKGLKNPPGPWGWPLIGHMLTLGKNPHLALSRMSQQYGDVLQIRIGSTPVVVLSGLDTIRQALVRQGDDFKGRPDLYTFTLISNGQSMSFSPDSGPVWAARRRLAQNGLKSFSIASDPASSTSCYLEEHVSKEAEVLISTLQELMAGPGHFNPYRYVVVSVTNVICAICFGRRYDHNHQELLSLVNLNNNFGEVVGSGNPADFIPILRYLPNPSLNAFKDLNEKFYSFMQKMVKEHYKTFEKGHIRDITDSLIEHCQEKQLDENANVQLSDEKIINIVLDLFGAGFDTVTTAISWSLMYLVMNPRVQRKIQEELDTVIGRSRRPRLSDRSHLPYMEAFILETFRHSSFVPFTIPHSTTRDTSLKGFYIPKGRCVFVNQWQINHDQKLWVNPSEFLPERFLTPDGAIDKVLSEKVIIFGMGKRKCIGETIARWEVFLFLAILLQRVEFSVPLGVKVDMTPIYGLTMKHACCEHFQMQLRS

[10] = Solubility of the compound; format: physicochemical
[11] = organism: Homo sapiens; experiment: Selectivity for human DGAT1 over human DGAT2
[12] = Clearance in rat liver hepatocytes measured per million cells; format: ADME, cell-based, Hepatocyte; details: read-out: CLH
[13] = Clearance in human liver hepatocytes measured per million cells; format: ADME, cell-based, Hepatocyte; details: read-out: CLH
[14] = Metabolic stability in human plasma assessed as compound loss measured at 12 hrs at 25 degC; format: ADME, cell-free; details: read-out: Drug metabolism

| SMILES | IC50 [1] [nM] | IC50 [2] [nM] | further results |
| --- | --- | --- | --- |
| CCC1CN(C(=O)Nc2ccccc2)c2ccc(-c3cnc(OCC(C)(C)C(=O)O)nc3)cc2O1 (stereo not drawn) | 310 | – | – |
| O=C(O)C[C@H]1CC[C@H](c2ccc(-c3ccc4c(n3)OCCN4C(=O)Nc3ccccc3)cc2)CC1 | 550 | – | – |
| CC1Oc2cc(-c3ccc([C@H]4CC[C@H](CC(=O)O)CC4)cc3)ccc2N(C(=O)Nc2ccccc2)C1=O (stereo partly drawn) | > 10000 | > 10000 | – |
| O=C(Nc1ccccc1)N1CCOc2cc(-c3ccc([C@H]4CC[C@H](Cc5nnn[nH]5)CC4)cc3)ccc21 | 170 | – | inhibition in vivo at 10 mg/kg [4]: 9% |
| CCC1CN(C(=O)Nc2ccccc2)c2ccc(-c3ccc([C@H]4CC[C@H](CC(=O)O)CC4)cc3)cc2O1 (stereo partly drawn) | 45 | – | inhibition in vivo at 10 mg/kg [4]: 88%; AUC [5]: 63 µM·h |
| O=C(O)C[C@H]1CC[C@H](c2ccc(-c3cccc4c3OCCN4C(=O)Nc3ccccc3)cc2)CC1 | > 10000 | > 10000 | – |
| O=C(O)[C@@H]1CCC[C@H]1C(=O)c1ccc(-c2ccc3c(c2)OCCN3C(=O)Nc2ccccc2)cc1 | 830 | – | – |
| CCC1CN(C(=O)Nc2ccccc2)c2ccc(-c3ccc(OCC4(C(=O)O)CC4)nc3)cc2O1 (stereo not drawn) | 90 | – | – |
| C[C@H]1CN(C(=O)Nc2ccccc2)c2ccc(-c3ccc([C@H]4CC[C@H](CC(=O)O)CC4)cc3)cc2O1 | 360 | 530 | – |
| CCCC1CN(C(=O)Nc2ccccc2)c2ccc(-c3ccc([C@H]4CC[C@H](CC(=O)O)CC4)cc3)cc2O1 (stereo partly drawn) | 160 | – | – |
| O=C(O)C[C@H]1CC[C@H](c2ccc(-c3cnc4c(c3)OCCN4C(=O)Nc3ccccc3)cc2)CC1 | > 10000 | > 10000 | – |
| CCC1CN(C(=O)Nc2ccccc2)c2ccc(-c3ccc(OCC4(C(=O)O)CCC4)nc3)cc2O1 (stereo not drawn) | 110 | – | – |
| CC1CN(C(=O)Nc2ccccc2)c2ccc(-c3ccc([C@H]4CC[C@H](CC(=O)O)CC4)cc3)cc2O1 (stereo partly drawn) | 33 | 91 | IC50 [6]: 5000 nM; inhibition in vivo at 10 mg/kg [4]: 85%; AUC [5]: 79 µM·h |
| O=C(O)C[C@H]1CC[C@H](c2ccc(-c3ccc4c(c3)OCCN4S(=O)(=O)Cc3ccccc3)cc2)CC1 | > 10000 | > 10000 | – |
| O=C(O)C[C@H]1CC[C@H](c2ccc(-c3ccc4c(c3)OCCN4C(=O)NC3CCCCC3)cc2)CC1 | 160 | – | – |
| O=C(O)C[C@H]1CC[C@H](c2ccc(-c3ccc4c(ccn4C(=O)Nc4ccccc4)c3)cc2)CC1 | – | – | Selectivity ratio [7]: 100; Papp [8]: 17 ×10⁻⁶ cm/s; fold induction at 30 µM [9]: 3; solubility [10]: 20 µM (≈ 9.05 µg/mL); Selectivity ratio [11]: 100; hepatocyte CLint [12]: 3.9 µL/min/1e6 cells; hepatocyte CLint [13]: 7.6 µL/min/1e6 cells; inhibition in vivo at 10 mg/kg [4]: 45% |
| CCC1CN(C(=O)Nc2ccccc2)c2ccc(-c3ccc(OC[C@H]4C[C@@H]4C(=O)O)nc3)cc2O1 (relative stereo) | 210 | – | – |
| CC1COc2cc(-c3ccc([C@H]4CC[C@H](CC(=O)O)CC4)cc3)ccc2N1C(=O)Nc1ccccc1 (stereo partly drawn) | 630 | – | – |
| O=C(O)C[C@H]1CC[C@H](c2ccc(-c3ccc4c(c3)OCCN4C(=O)Nc3ccccc3)cc2)CC1 | – | – | inhibition in vivo at 10 mg/kg [4]: 52%; metabolised at 12 h [14]: 10% |
| O=C(O)C[C@H]1CC[C@H](c2ccc(-c3ccc4c(c3)OCCN4c3nc4ccccc4o3)cc2)CC1 | > 10000 | > 10000 | – |

Continued, in another order:

| IC50 [1] [nM] | IC50 [2] [nM] | SMILES | further results |
| --- | --- | --- | --- |
| 45 | 52 | O=C(O)C[C@H]1CC[C@@H](c2ccc(-c3ccc4c(c3)OCCN4C(=O)Nc3ccccc3)cc2)CC1 | inhibition in vivo at 3 mg/kg [3]: 2% |
| 920 | – | O=C(C[C@H]1CC[C@H](c2ccc(-c3ccc4c(c3)OCCN4C(=O)Nc3ccccc3)cc2)CC1)NO | – |
| 5200 | – | Nc1ccccc1NC(=O)N1CCOc2cc(-c3ccc([C@H]4CC[C@H](CC(=O)O)CC4)cc3)ccc21 | – |
| 37 | – | CCc1ccccc1NC(=O)N1CCOc2cc(-c3ccc([C@H]4CC[C@H](CC(=O)O)CC4)cc3)ccc21 | – |
| 53 | 85 | CCc1ccccc1NC(=O)N1C[C@H](C)Oc2cc(-c3ccc([C@H]4CC[C@H](CC(=O)O)CC4)cc3)ccc21 | inhibition in vivo at 3 mg/kg [3]: 46% |
| 36 | – | O=C(O)C[C@H]1CC[C@H](c2ccc(-c3ccc4c(c3)OCCN4C(=O)NCCCCc3ccccc3)cc2)CC1 | inhibition in vivo at 10 mg/kg [4]: 23% |
| > 10000 | > 10000 | O=C(O)C[C@H]1CC[C@H](c2ccc(-c3ccc4c(c3)N(C(=O)Nc3ccccc3)CCO4)cc2)CC1 | – |
| 300 | – | CC(C)C1CN(C(=O)Nc2ccccc2)c2ccc(-c3ccc([C@H]4CC[C@H](CC(=O)O)CC4)cc3)cc2O1 (stereo partly drawn) | – |
| > 10000 | > 10000 | O=C(O)C[C@H]1CC[C@H](c2ccc(-c3ccc4c(c3)OCCN4C(=O)Nc3ccccc3C(=O)O)cc2)CC1 | – |
| 7300 | – | CS(=O)(=O)NC(=O)C[C@H]1CC[C@H](c2ccc(-c3ccc4c(c3)OCCN4C(=O)Nc3ccccc3)cc2)CC1 | – |
| 110 | – | O=C(O)C[C@H]1CC[C@H](c2ccc(-c3ccc4c(c3)OCCN4C(=O)NCc3ccccc3)cc2)CC1 | – |
| 16 | – | O=C(O)C[C@H]1CC[C@H](c2ccc(-c3ccc4c(c3)OCCN4C(=O)Nc3ccccc3C(F)(F)F)cc2)CC1 | – |
| 34 | – | CCOc1ccc(NC(=O)N2CCOc3cc(-c4ccc([C@H]5CC[C@H](CC(=O)O)CC5)cc4)ccc32)cc1 | – |
| 69 | – | CC(C)c1ccccc1NC(=O)N1CCOc2cc(-c3ccc([C@H]4CC[C@H](CC(=O)O)CC4)cc3)ccc21 | – |
| 50 | 110 | CCc1ccccc1NC(=O)N1CC(C)Oc2cc(-c3ccc([C@H]4CC[C@H](CC(=O)O)CC4)cc3)ccc21 (stereo partly drawn) | inhibition in vivo at 3 mg/kg [3]: 92% |
| 1200 | – | O=C(O)C[C@H]1CC[C@H](c2ccc(-c3ccc4c(c3)OCCN4C(=O)Nc3cc(C(F)(F)F)ccc3F)cc2)CC1 | – |
| 200 | – | CC(C(=O)O)[C@H]1CC[C@H](c2ccc(-c3ccc4c(c3)OCCN4C(=O)Nc3ccccc3)cc2)CC1 (stereo partly drawn) | – |
| 110 | – | O=C(O)C[C@H]1CC[C@H](c2ccc(-c3ccc4c(c3)OCCN4C(=O)Cc3ccccc3)cc2)CC1 | – |

Reference: ChEMBL document CHEMBL3286266, “Development of novel benzomorpholine class of diacylglycerol acyltransferase I inhibitors” (ACS Med Chem Lett, 2014)
